Earlier results in patent US20220119489A1, “COMPOSITIONS AND METHODS FOR TREATING MUSCULAR DYSTROPHY AND RELATED DISORDERS” (CHILDREN'S MEDICAL CENTER CORPORATION, priority 2019, published 2022).

Key:
CD82 [1] = conditions: stated as previously shown, no test described
CD82 [2] = conditions: Pompe disease patients under treatment

| Compound | expression of CD82 (CD82 [1]) | increase of muscle CD82 expression compared to baseline levels (CD82 [2]) |
| --- | --- | --- |
| C[C@]12COC(=O)C[C@@H]1CC[C@@H]1[C@@H]2CC[C@@]2(C)[C@H]1CC[C@]2(C)O [oxandrolone] | increase expression of CD82 | – |
| CC(=O)C(=O)[O-].[Na+] [sodium pyruvate] | increase expression of CD82 | – |
| recombinant human lysosomal acid alpha glucosidase: recombinant enzyme used to treat Pompe disease patients | – | 25-50% |
